In US7915199B1, “Herbicidal composition” (Syngenta Crop Protection, Inc., priority 1999, dated 2011) one finds melting point data, which are given here for 7 compounds.

Broadly, the melting point is the temperature, or range, at which the solid turns liquid. For `CCc1cc(C)cc(C)c1-c1c(O)n2n(c1=O)CCOCC2`, the melting point fell in the range of 182 to 185 °C. Compound `CCc1cc(C)cc(C)c1-c1c(OC(=O)C(C)(C)C)n2n(c1=O)CCOCC2` gave a melting point of 110 to 113 °C. As for `CCOC(=O)Oc1c(-c2c(CC)cc(C)cc2CC)c(=O)n2n1CCOCC2`, the melting point fell in the range of 114 to 116 °C.

The compound `Cc1cc(C)c(-c2c(O)n3n(c2=O)CCOCC3)c(C(C)C)c1` returned a melting point of 214 to 216 °C. The value for `Cc1cc(C)c(-c2c(OC(=O)C(C)(C)C)n3n(c2=O)CCOCC3)c(C(C)C)c1` was 148 to 151 °C. In turn, `COc1cc(C)cc(Br)c1-c1c(O)n2n(c1=O)CCOCC2` yielded a melting point of 217 to 219 °C. As for `COc1cc(C)cc(Br)c1-c1c(OC(=O)C(C)(C)C)n2n(c1=O)CCOCC2`, the figure is 173 to 175 °C.
